According to patent publication US20210338615A1, “Inhibition of Acetyl-CoA Metabolism for Treatment and Prevention of Immune System Diseases and Disorders” (Memorial Sloan Kettering Cancer Center, priority 2016, published 2021):

Columns and labels:
H3K9Ac at the Ifng locus = experiment: H3K9Ac at the Ifng promoter and CNS22 enhancer regions by ChIP-qPCR; type: cell-based, mouse; conditions: KO Th1 cells, 20 mM sodium acetate or 30 nM TSA for 24 h; normalized to Cd3e promoter
Protocol: Enrichment was normalized to H3K9Ac at the Cd3e promoter region. […] Cells were subsequently re-stimulated with phorbol myristate acetate (PMA) and ionomycin for 4 h.
In panels A-D, naïve CD4^+ T cells isolated from wild-type (WT) mice were differentiated under Th1 conditions for 2 days. […] Subsequently, cells were re-stimulated with phorbol myristate acetate (PMA) and ionomycin for 4 h. IFN-γ expression was determined by intracellular staining. […] Cell viability was determined by LIVE/DEAD staining. […] Data represent mean±SD, n=3. Two-tailed unpaired t-test, *P≤0.05; **P≤0.01; ns, not significant. […] Acetyl-CoA levels were measured by an acetyl-CoA assay kit. Data represent mean±SD, n=3. Two-tailed unpaired t-test, **P≤0.01. […] The expression of T-bet was determined by flow cytometry. Panels G and H show naïve CD4^+ T cells isolated from WT or KO mice, differentiated under Th1 conditions for 3 days. […] The expression of IFN-γ (panel G) and T-bet (panel H) were determined by flow cytometry. […]
Chromatin immunoprecipitations were performed with SimpleChIP Enzymatic Chromatin IP Kit (Cell Signaling) according to manufacturer's instructions. […] The relative abundance of precipitated DNA fragments was analyzed by qPCR using Power SYBR Green PCR Master Mix (Qiagen) and the enrichments were normalized to Cd3e promoter.

[1] = system: CD4+ T cells differentiated under Th1 conditions; experiment: IFN-γ expression in CD4+ T cells differentiated under Th1 conditions (intracellular staining, flow cytometry); type: cell-based, mouse; conditions: for IFN-γ expression in KO T cells: LDHA-deficient (KO) Th1 cells, 20 mM sodium acetate or 30 nM TSA for another 24 h, PMA and ionomycin 4 h; for IFN-γ expression: WT naïve CD4+ T cells under Th1 conditions, inhibitor added for another 24 h, re-stimulated with PMA and ionomycin 4 h
Protocol: Panels D and E show naïve WT or KO CD4^+ T cells differentiated under Th1 conditions for 3 days, and either left untreated or supplemented with 20 mM sodium acetate for another 24 h.
(§1) IFN-γ expression was determined by intracellular staining. […] Cell viability was determined by LIVE/DEAD staining. […] Data represent mean±SD, n=3. […] Data represent mean±SD, n=3. Two-tailed unpaired t-test, **P≤0.01. […] Data represent mean±SD, n=4.
Naïve CD4^+ T cells isolated from wild-type mice were differentiated under Th1 conditions for 3 days. DMSO or indicated concentration of Fx11 was added to the cell culture for another 24 h, with or without 20 mM sodium acetate. […] IFN-γ expression was determined by intracellular staining. Representative plots (panel A) and quantification (panel B) are shown.
(§2) Cells from thymi, spleens, and lymph nodes were depleted of erythrocytes by hypotonic lysis. Cells were incubated with specific antibodies for 15 min on ice in the presence of anti-FcγR to block FcγR binding. Dead cells were excluded by DAPI (Invitrogen) staining. To determine cytokine expression, cells were stimulated with 50 ng/mL phorbol 12-myristate 13-acetate (Sigma) and 1 μM ionomycin (Sigma) in the presence of GolgiStop (BD Biosciences) for 4 h. After stimulation, cells were stained with cell-surface marker antibodies and LIVE/DEAD Fixable dye (Invitrogen) to exclude dead cells, fixed, and permeabilized with a transcription factor staining kit (eBioscience), followed by staining with cytokine antibodies. All samples were acquired with an LSR II flow cytometer (Becton, Dickinson) and analyzed with FlowJo software (TreeStar).
CD62L^+CD44^−CD25^−CD4^+ T cells were isolated from spleen and peripheral lymph nodes of wild-type (WT) or CD4^CreLdha^fl/fl (KO) mice with naïve CD4^+ T cells isolation kits (Miltenyi or Stem Cell). Purity was checked by flow cytometry, and was over 98%. For in vitro T cell activation, 0.2-0.5×10^6 naïve CD4^+ T cells were cultured on a 24-well plate pre-coated with 5 μg/mL anti-CD3 in T cell medium [RPMI/1640, 10% fetal bovine serum, 2 mM glutamine, 1 mM sodium pyruvate, 1× non-essential amino acid (Invitrogen), 10 mM HEPES, 55 μM 2-mercaptoethanol, 100 U/ml penicillin, […]] supplemented with 2 μg/mL anti-CD28 and 100 U/ml IL-2. For T helper 1 (Th1) cell differentiation, T cells were cultured with the addition of 10 μg/mL anti-IL-4 and 10 ng/mL IL-12. For T helper 17 (Th17) cell differentiation, T cells were cultured with the addition of 10 μg/mL anti-IL-4, 10 μg/mL anti-IFN-γ, 10 μg/mL anti-IL-2, 2 ng/ml TGF-β, 10 ng/ml IL-6, 10 ng/ml IL-23, and 10 ng/mL […]. For cell proliferation experiments, naïve CD4^+ T cells were labeled with CFSE (Invitrogen), and activated on a 24-well plate, pre-coated with 5 μg/mL anti-CD3, in T cell culture medium supplemented with 2 μg/mL anti-CD28 and 100 U/mL IL-2. CFSE dilution was assessed by flow cytometry on days 1, 2, and 3 post-activation. For sodium acetate and TSA treatment experiment, cells were differentiated under Th1 conditions for 3 days, and cultured in T cell medium supplemented with 100 U/mL IL-2, 10 μg/mL anti-IL-4, 10 ng/mL IL-12, and the indicated concentrations of sodium acetate (Sigma), TSA (Promega), or […] for 24 h. For ATP citrate lyase (ACL) inhibitor experiments, naïve CD4^+ T cells isolated from WT mice were cultured under Th1 conditions for 2 days or under Th17 conditions for 3 days. […]

[2] = system: CD4CreLdhafl/fl (KO) CD4+ T cells differentiated under Th1 conditions; conditions: 20 mM sodium acetate for 24 h
Protocol: In panels A-D, naïve CD4^+ T cells isolated from wild-type (WT) mice were differentiated under Th1 conditions for 2 days. DMSO or the ATP citrate lyase inhibitor (ACLi) BMS-303141 was added to the culture for another 24 h. Subsequently, cells were re-stimulated with phorbol myristate acetate (PMA) and ionomycin for 4 h. IFN-γ expression was determined by intracellular staining. […] Cell viability was determined by LIVE/DEAD staining. […] Data represent mean±SD, n=3. Two-tailed unpaired t-test, *P≤0.05; **P≤0.01; ns, not significant. […] Acetyl-CoA levels were measured by an acetyl-CoA assay kit. Data represent mean±SD, n=3. Two-tailed unpaired t-test, **P≤0.01. […] The expression of T-bet was determined by flow cytometry. Panels G and H show naïve CD4^+ T cells isolated from WT or KO mice, differentiated under Th1 conditions for 3 days. […] The expression of IFN-γ (panel G) and T-bet (panel H) were determined by flow cytometry. […]
For measurement of cytosolic acetyl-CoA, naïve CD4^+ T cells were differentiated under Th1 conditions for 2 days and then cultured in fresh T cell medium for another 24 h. […] Freshly isolated naïve WT and KO CD4^+ T cells were rested in T cell medium with 10 ng/mL IL-7 for 4 h at 37° C. in the incubator, and the level of acetyl-CoA was measured.

[3] = system: CD4+ T cells differentiated under Th1 conditions; experiment: T-bet expression in Th1 cells by flow cytometry; type: cell-based, mouse; conditions: WT or KO Th1 cells, 20 mM sodium acetate or 30 nM TSA for another 24 h
Protocol: as §1, §2
CD62L^+CD44^−CD25^−CD4^+ T cells were isolated from spleen and peripheral lymph nodes of wild-type (WT) or CD4^CreLdha^fl/fl (KO) mice with naïve CD4^+ T cells isolation kits (Miltenyi or Stem Cell). […] CFSE dilution was assessed by flow cytometry on days 1, 2, and 3 post-activation. […]

[4] = system: CD4+ T cells differentiated under Th17 conditions; experiment: IL-17a expression in CD4+ T cells differentiated under Th17 conditions (flow cytometry); type: cell-based, mouse
Protocol: Naïve WT or LDHA-deficient (KO) CD4^+ T cells were differentiated under Th17 conditions for 4 days. Increasing doses of GNE-140 were also included in the WT T cell culture. Cell viability was determined by a live/dead cell dye, and the percentage of live cell population is shown. In addition, cells were re-stimulated with PMA/ionomycin for 4 h. IL-17a and Foxp3 protein expression was examined by flow cytometry, and used as readouts for Th17 and Treg cell differentiation, respectively.
In panels A-C, naïve WT or LDHA-deficient (KO) CD4^+ T cells were differentiated under Th17 conditions for 3 days. Cells were re-stimulated with PMA/ionomycin for 4 h. […] Data represent mean±SD, n=2. Two-tailed unpaired t-test, **P≤0.01. […] In panels D-F, WT or KO mice were subjected to EAE induction by immunization with MOG peptide with CFA. […] Panel F is quantification of panel E; data represent mean±SD, n=4. […]
Naïve CD4 T cells (2.5×10^4) were isolated from spleen and peripheral lymph nodes of Ldha^fl/fl (WT) and CD4^CreLdha^fl/fl (KO) mice. […] Cytokines and transcription factors were analyzed by flow cytometry.
Cells from thymi, spleens, and lymph nodes were depleted of erythrocytes by hypotonic lysis. […] All samples were acquired with an LSR II flow cytometer (Becton, Dickinson) and analyzed with FlowJo software (TreeStar). […]

[5] = system: experimental autoimmune encephalomyelitis (EAE); experiment: Experimental autoimmune encephalomyelitis (EAE), mouse model of multiple sclerosis; type: in vivo; conditions: WT mice, MOG peptide with CFA; 35 mg/kg/day intraperitoneally daily from day 7
Protocol: In panels A-C, naïve WT or LDHA-deficient (KO) CD4^+ T cells were differentiated under Th17 conditions for 3 days. Cells were re-stimulated with PMA/ionomycin for 4 h. […] Data represent mean±SD, n=2. Two-tailed unpaired t-test, **P≤0.01. […] In panels D-F, WT or KO mice were subjected to EAE induction by immunization with MOG peptide with CFA. Clinical scoring in panel D: 0, no overt signs of disease; 1, limp tail; 2, partial hind-limb paralysis; 3, total hind-limb paralysis; 4, hind-limb paralysis and 75% body paralysis; 5, complete body paralysis, or moribund state, or death by EAE, or sacrifice for humane reasons. […] IL-17a and IFN-γ protein expression were examined by flow cytometry. Panel F is quantification of panel E; data represent mean±SD, n=4. Two-tailed unpaired t-test, ***P≤0.001. […] Naïve WT or KO CD4^+ T cells were differentiated under Th17 conditions for 3 days, and BMS 303141 was included in the culture for another 24 hours. Cells were re-stimulated with PMA/ionomycin for 4 h. IL-17a protein expression was examined by flow cytometry. […] WT mice were subjected to EAE induction by immunization with MOG peptide with CFA. BMS 303141 (35 mg/kg/day) was intraperitoneally injected daily, starting from day 7. Clinical scoring was the same as in panel D.

Compound | H3K9Ac in the Ifng locus (H3K9Ac at the Ifng locus) | IFN-γ expression in KO T cells [1] | T-bet expression [3] | IFN-γ expression [1] | also measured
CC(=O)[O-].[Na+] [Acetate, sodium acetate] | normalization of H3K9Ac in Ifng promoter and enhancer regions | corrected IFN-γ expression in KO T cells | without affecting T-bet expression |  | acetyl-CoA production [2]: augmented acetyl-CoA production
COc1ccc(-c2ccccc2)cc1NS(=O)(=O)c1cc(Cl)cc(Cl)c1O [BMS 303141, 3,5-dichloro-2-hydroxy-N-(4-methoxy[1,1′-biphenyl]-3-yl)-benzenesulfonamide] |  |  |  | suppresses IFN-γ expression | IL-17a production ([4]; Th17 conditions for 3 days, BMS 303141 in the culture for another 24 hours, PMA/ionomycin 4 h): repressed IL-17a production; protection from EAE (clinical scoring) [5]: completely protected mice from EAE
CCCc1c(O)c(O)c(C(=O)O)c2cc(Cc3ccccc3)c(C)cc12 [FX11] |  |  |  | dose-dependently inhibited IFN-γ expression | inhibitory effect on IFN-γ expression when supplementing cells with acetate ([1]; WT Th1 cells, FX11 for 24 h with 20 mM sodium acetate): fully nullified
O=C1N[C@](c2ccc(N3CCOCC3)cc2)(c2ccsc2)CC(O)=C1Sc1ccccc1Cl [GNE-140, (2R)-5-(2-chlorophenyl)sulfanyl-4-hydroxy-2-(4-morpholin-4-ylphenyl)-2-thiophen-3-yl-1,3-dihydropyridin-6-one] |  |  |  |  | IL-17A expression ([4]; WT T cells under Th17 conditions with APCs, 0.3, 10 or 30 μM GNE-140, harvested day 4, PMA/ionomycin 4 h): inhibited IL-17A expression in WT T cells in a dose-dependent manner
CC(/C=C/C(=O)NO)=C\[C@@H](C)C(=O)c1ccc(N(C)C)cc1 [TSA] | increased H3K9Ac in the Ifng locus | rectified IFN-γ expression in KO T cells | without affecting T-bet expression |  | 
